Test results taken from ChEMBL document CHEMBL5365521, “Discovery of the Potent and Selective Inhaled Janus Kinase 1 Inhibitor AZD4604 and Its Preclinical Characterization” (J Med Chem, 2023).
≈ marks a conversion by molar mass, not a printed value. Calls of active or inactive are those of the source. No cut-off for these calls is given here.

Experiments:
[1] = Distribution coefficient between 1-Octanol and aqueous phosphate buffer, logD of the compound at pH 7.4 by shake-flask method; format: physicochemical; conditions: 1-octanol/aqueous phosphate buffer, read-out: logD
[2] = Solubility in phosphate buffer at pH 7.4; format: physicochemical
[3] = Plasma protein binding in human assessed as free fraction; format: ADME, cell-free
[4] = target: T1, Tyrosine-protein kinase JAK1 (Homo sapiens, UniProt P23458); experiment: Inhibition of N-terminal GST-tagged human recombinant JAK1 (866 to 1154 residues) expressed in insect cells using FITC-C6-KKHTDDGYMPMSPGVA-NH peptide as substrate incubated for 10 mins measured after 90 mins in presence of ATP by caliper mobility shift assay
[5] = Inhibition of JAK/STAT signaling pathway in human U-937 cells assessed as inhibition of IL-4 stimulated STAT6 phosphorylation; format: cell-based
[6] = Inhibition of JAK/STAT signaling pathway in human U-937 cells assessed as inhibition of IL-13 stimulated STAT6 phosphorylation; format: cell-based
[7] = Thermodynamic solubility of the compound in phosphate buffer at pH 7.4 measured after 24 hrs by HPLC-MS analysis; format: physicochemical; conditions: read-out: Therm_solubility
[8] = Apparent permeability of compound across apical to basolateral side in human Caco-2 cells at pH 7.4; format: ADME, cell-based; conditions: Caco-2, pH 7.4
[9] = Efflux ratio of apparent permeability across apical to basolateral side in human Caco-2 cells at pH 7.4; format: ADME, cell-based; conditions: Caco-2, pH 7.4
[10] = Volume of distribution at steady state in Han Wistar rat at 0.5 mg/kg, iv; format: ADME, organism-based; conditions: in vivo, read-out: Vdss
[11] = Drug uptake in lung of rat at 0.020 micromol/kg, IT; format: ADME, tissue-based; conditions: in vivo, other, dose 0.02 µmol/kg
[12] = AUC(0 to 24 hrs) in rat at 0.020 micromol/kg, IT; format: ADME; design: dose 0.02 µmol/kg, route it; conditions: in vivo, 0.02 µmol/kg
[13] = Thermodynamic solubility of the compound in phosphate buffer at pH 6.5 measured after 24 hrs by HPLC-MS analysis; format: physicochemical; conditions: read-out: Therm_solubility
[14] = Toxicity in human CD4+ T cell assessed as reduction in cell viability measured after 5 days by eFluor780 staining based flow cytometry analysis; conditions: 120 h, dose 1-10000 nM, time 5 day
CD4+ T cell = experiment: Antiinflammatory activity in human CD4+ T cell assessed as reduction in CD25 expression measured after 5 days by eFluor780 staining based flow cytometry analysis; format: functional; conditions: dose 1-10000 nM, time 5.0 day
Th1 cell = experiment: Inhibition of human naive Th1 cell differentiation assessed as decrease in IFNg production measured after 5 days by MSD assay; format: functional, cell-based; conditions: dose 1-10000 nM, time 5.0 day
Th2 cell [15] = experiment: Inhibition of human naive Th2 cell differentiation assessed as decrease in IL-4 production measured after 5 days by MSD assay; format: functional, cell-based; conditions: dose 1-10000 nM, time 5.0 day
Th17 = experiment: Inhibition of human memory-derived Th17 cell differentiation assessed as decrease in IL-17 production measured after 5 days by MSD assay; format: functional, cell-based; conditions: time 5.0 day
Th2 cell [16] = experiment: Inhibition of human naive Th2 cell differentiation assessed as decrease in IL-5 production measured after 5 days by MSD assay; format: functional, cell-based; conditions: time 5.0 day
Th2 cell [17] = experiment: Inhibition of human naive Th2 cell differentiation assessed as decrease in IL-13 production measured after 5 days by MSD assay; format: functional, cell-based; conditions: time 5.0 day
[18] = Toxicity in human naive Th1 cell assessed as reduction in cell viability at 1 to 10000 nM; format: cell-based; conditions: 10 µM, dose 1-10000 nM
[19] = Toxicity in human naive Th2 cell assessed as reduction in cell viability at 1 to 10000 nM; format: cell-based; conditions: 10 µM, dose 1-10000 nM
[20] = Toxicity in human memory-derived Th17 cells assessed as reduction in cell viability at 1 to 10000 nM; format: cell-based; conditions: th17, 10 µM, dose 1-10000 nM
[21] = Inhibition of JAK/STAT signaling pathway in human CD4+ T cell assessed as inhibition of IL-4 stimulated STAT6 phosphorylation preincubated for 20 to 60 mins followed by IL-4 stimulation measured after 15 mins by flow cytometry analysis; format: cell-based
CD14-positive cell = experiment: (§1) Inhibition of JAK/STAT signaling pathway in human CD14-positive cell monocytes isolated from human PBMC assessed as inhibition of IL-13 stimulated STAT6 phosphorylation preincubated for 20 to 60 mins followed by IL-13 stimulation measured after 15 mins by flow cytometry analysis; format: cell-based; conditions: time 35-75 min
[22] = target: T1, Tyrosine-protein kinase JAK1; experiment: Inhibition of JAK1 in human CD14-positive cell monocytes isolated from human PBMC assessed as reduction in mature dendritic phenotype by measuring CD14 expression level at 100 nM measured after 5 days by CD14 APC staining based flow cytometry analysis; conditions: time 5.0 day
[23] = target: T1, Tyrosine-protein kinase JAK1; experiment: Inhibition of JAK1 in human CD14-positive cell monocytes isolated from human PBMC assessed as reduction in mature dendritic phenotype by measuring CD11c expression level at 100 nM measured after 5 days by CD11c PE-CF594 staining based flow cytometry analysis; conditions: time 5.0 day
[24] = Inhibition of JAK/STAT signaling pathway in human CD14-positive cell monocytes isolated from human PBMC assessed as inhibition of IL-4 stimulated STAT6 phosphorylation preincubated for 20 to 60 mins followed by IL-4 stimulation measured after 15 mins by flow cytometry analysis; format: cell-based
[25] = as §1; format: cell-based
[26] = target: Tyrosine-protein kinase JAK2 (Homo sapiens, UniProt O60674); experiment: Inhibition of N-terminal GST-tagged human recombinant JAK2 (831 to 1132 residues) expressed in insect cells using 5FAM-GEEPLYWSFPAKKK-NH2 peptide as substrate incubated for 10 mins measured after 90 mins in presence of ATP by caliper mobility shift assay
[27] = target: T2, Tyrosine-protein kinase JAK3 (Homo sapiens, UniProt P52333); experiment: Inhibition of N-terminal GST-tagged human recombinant JAK3 (781 to 1124 residues) expressed in insect cells using 5FAM-GEEPLYWSFPAKKK-NH2 peptide as substrate incubated for 10 mins measured after 90 mins in presence of ATP by caliper mobility shift assay
T2 sequence (P52333 whole entry): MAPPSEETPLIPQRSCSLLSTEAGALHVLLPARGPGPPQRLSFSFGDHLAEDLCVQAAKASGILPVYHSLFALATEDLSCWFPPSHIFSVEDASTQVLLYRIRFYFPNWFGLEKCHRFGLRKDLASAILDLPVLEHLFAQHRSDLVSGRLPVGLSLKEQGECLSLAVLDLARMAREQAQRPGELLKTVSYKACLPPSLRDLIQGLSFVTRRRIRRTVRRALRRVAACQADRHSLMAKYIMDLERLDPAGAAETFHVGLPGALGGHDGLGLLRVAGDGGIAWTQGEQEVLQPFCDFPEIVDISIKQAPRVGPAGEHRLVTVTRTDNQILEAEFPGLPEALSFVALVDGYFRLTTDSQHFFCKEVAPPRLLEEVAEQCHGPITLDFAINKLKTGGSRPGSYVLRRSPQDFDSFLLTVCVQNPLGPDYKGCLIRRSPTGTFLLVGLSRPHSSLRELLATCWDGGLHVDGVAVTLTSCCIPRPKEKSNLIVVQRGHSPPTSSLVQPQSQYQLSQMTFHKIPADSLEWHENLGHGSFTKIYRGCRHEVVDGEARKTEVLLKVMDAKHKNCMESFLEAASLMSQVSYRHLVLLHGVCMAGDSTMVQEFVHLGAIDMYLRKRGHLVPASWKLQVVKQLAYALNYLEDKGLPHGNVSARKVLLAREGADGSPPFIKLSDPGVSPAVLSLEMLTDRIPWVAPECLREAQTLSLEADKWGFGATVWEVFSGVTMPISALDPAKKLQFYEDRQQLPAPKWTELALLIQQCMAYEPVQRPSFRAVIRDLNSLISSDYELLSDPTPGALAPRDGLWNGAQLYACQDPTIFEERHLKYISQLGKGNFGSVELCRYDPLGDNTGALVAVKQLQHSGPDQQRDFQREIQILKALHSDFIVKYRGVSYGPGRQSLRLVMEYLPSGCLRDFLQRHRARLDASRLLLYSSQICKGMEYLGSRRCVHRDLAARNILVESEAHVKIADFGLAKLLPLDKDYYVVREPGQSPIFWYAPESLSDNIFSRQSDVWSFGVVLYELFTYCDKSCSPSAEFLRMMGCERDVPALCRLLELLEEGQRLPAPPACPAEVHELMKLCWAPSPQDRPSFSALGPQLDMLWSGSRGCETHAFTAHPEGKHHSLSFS

T1 sequence (P23458 whole entry, the tested form may be a part): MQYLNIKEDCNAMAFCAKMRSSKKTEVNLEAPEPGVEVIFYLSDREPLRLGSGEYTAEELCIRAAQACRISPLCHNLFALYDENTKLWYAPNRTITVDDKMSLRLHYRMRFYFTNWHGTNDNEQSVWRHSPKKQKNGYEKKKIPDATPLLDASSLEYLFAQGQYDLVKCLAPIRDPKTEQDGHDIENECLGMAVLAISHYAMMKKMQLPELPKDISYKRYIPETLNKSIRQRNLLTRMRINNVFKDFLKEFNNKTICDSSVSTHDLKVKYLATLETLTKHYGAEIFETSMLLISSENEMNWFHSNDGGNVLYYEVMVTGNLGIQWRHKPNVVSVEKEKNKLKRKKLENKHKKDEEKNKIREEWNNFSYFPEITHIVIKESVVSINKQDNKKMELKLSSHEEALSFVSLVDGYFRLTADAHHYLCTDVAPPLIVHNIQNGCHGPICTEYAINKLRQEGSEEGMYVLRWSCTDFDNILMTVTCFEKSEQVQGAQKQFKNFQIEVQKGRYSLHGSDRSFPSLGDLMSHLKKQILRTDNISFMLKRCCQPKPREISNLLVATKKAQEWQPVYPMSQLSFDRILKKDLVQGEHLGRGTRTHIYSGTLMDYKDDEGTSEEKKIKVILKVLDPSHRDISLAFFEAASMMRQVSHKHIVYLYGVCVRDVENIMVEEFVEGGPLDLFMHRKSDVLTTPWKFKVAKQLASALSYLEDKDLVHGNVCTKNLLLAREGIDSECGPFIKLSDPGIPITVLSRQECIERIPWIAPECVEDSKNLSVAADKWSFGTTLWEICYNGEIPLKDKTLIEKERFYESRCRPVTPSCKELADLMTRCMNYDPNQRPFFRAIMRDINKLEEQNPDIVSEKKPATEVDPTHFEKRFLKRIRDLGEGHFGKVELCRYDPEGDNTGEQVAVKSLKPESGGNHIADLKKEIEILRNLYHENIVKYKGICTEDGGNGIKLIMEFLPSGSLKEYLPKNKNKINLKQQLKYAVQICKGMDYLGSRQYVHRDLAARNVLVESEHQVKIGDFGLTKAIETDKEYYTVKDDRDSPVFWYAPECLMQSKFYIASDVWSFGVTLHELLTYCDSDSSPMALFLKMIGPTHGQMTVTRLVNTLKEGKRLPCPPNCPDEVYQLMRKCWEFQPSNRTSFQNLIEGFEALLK
Sequence of Tyrosine-protein kinase JAK2 (O60674 whole entry, the tested form may be a part): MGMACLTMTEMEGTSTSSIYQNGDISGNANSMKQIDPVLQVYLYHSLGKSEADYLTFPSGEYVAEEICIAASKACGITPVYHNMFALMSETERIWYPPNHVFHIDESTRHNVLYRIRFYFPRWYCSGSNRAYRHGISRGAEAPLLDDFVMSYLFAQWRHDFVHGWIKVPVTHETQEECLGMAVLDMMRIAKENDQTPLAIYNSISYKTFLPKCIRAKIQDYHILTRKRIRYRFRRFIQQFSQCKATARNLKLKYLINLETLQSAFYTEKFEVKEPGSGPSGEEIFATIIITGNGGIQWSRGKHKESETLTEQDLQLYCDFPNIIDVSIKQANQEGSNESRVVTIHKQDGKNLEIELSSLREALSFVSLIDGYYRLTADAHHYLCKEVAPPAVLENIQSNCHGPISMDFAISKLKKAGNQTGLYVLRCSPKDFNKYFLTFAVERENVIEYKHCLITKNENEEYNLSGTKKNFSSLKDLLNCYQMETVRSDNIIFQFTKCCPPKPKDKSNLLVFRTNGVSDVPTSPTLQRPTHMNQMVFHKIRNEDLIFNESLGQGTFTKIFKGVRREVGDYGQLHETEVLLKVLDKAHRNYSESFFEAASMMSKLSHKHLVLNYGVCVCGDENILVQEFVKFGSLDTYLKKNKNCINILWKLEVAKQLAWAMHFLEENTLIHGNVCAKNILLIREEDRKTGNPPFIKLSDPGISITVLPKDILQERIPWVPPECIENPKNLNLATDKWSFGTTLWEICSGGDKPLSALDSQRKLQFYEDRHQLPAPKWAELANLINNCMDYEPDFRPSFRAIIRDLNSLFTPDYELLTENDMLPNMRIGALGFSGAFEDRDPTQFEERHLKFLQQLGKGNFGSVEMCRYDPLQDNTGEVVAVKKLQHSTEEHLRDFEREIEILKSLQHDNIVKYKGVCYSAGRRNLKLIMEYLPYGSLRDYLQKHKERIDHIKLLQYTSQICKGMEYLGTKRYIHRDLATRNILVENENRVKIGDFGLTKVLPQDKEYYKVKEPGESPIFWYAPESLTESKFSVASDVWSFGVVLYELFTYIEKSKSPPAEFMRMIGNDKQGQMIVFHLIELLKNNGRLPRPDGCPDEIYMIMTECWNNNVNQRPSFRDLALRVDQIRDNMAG

| logD [1] | solubility [2] [µM] | fraction unbound [3] | IC50 [4] [nM] | IC50 [5] [nM] | IC50 [6] [nM] | Papp A→B [8] [×10⁻⁶ cm/s] | Drug uptake [11] | AUC(0-t) [12] [µM·h] | Compound | other results |
| --- | --- | --- | --- | --- | --- | --- | --- | --- | --- | --- |
| 2.5 | 15 (≈ 8.49 µg/mL) | 0.06 | ≤ 4 | 22 | 32 | 4.5 | Active | 1.5 | Cc1cnc(Nc2cccc(S(C)(=O)=O)c2F)nc1-c1c[nH]c2c(NC(=O)[C@@H](C)N3CCN(C)CC3)cccc12 | solubility thermodynamic at 24 h [7]: 15 µM (≈ 8.49 µg/mL); efflux ratio [9]: 4.9; Vd [10]: 9.2 L/kg |
| 2.4 | 38 (≈ 22.6 µg/mL) | 0.09 |  | 13 | 18 | 2.3 | Active | 0.7 | COC[C@H](C(=O)Nc1cccc2c(-c3nc(Nc4cccc(S(C)(=O)=O)c4F)ncc3C)c[nH]c12)N1CCN(C)CC1 | solubility thermodynamic at 24 h [7]: 40 µM (≈ 23.8 µg/mL); solubility thermodynamic at 24 h [13]: 289 µM (≈ 172 µg/mL) |
| 3.3 | 9 (≈ 5.25 µg/mL) | 0.05 | ≤ 3 | 27 | 43 |  |  |  | CC[C@H](C(=O)Nc1cccc2c(-c3nc(Nc4cccc(S(C)(=O)=O)c4F)ncc3F)c[nH]c12)N1CCN(C)CC1 |  |
| 2.8 | 11 (≈ 6.38 µg/mL) | 0.05 |  | 15 | 22 | 2.7 | Active | 1.6 | CC[C@H](C(=O)Nc1cccc2c(-c3nc(Nc4cccc(S(C)(=O)=O)c4F)ncc3C)c[nH]c12)N1CCN(C)CC1 | solubility thermodynamic at 24 h [13]: 104 µM (≈ 60.3 µg/mL); efflux ratio [9]: 3.6; Vd [10]: 9 L/kg |

More lines, now with the values behind:

| Compound | logD [1] | solubility [2] [µM] | fraction unbound [3] | IC50 [4] [nM] | IC50 [5] [nM] | IC50 [6] [nM] | Papp A→B [8] [×10⁻⁶ cm/s] | Drug uptake [11] | AUC(0-t) [12] [µM·h] | other results |
| --- | --- | --- | --- | --- | --- | --- | --- | --- | --- | --- |
| C=CC(=O)Nc1cc(-c2ncnc3[nH]cc(C(=O)OCC)c23)ccc1C |  |  |  |  |  |  |  |  |  | Activity [14]: Dose-Dependent Effect; Activity (CD4+ T cell): Dose-Dependent Effect; inhibition (Th1 cell): Dose-Dependent Effect; inhibition (Th2 cell [15]): Dose-Dependent Effect; inhibition (Th17): Dose-Dependent Effect; inhibition (Th2 cell [16]): Dose-Dependent Effect; inhibition (Th2 cell [17]): Dose-Dependent Effect; Activity [18]: Non-Toxic; Activity [19]: Non-Toxic; Activity [20]: Non-Toxic; IC50 [21]: 134 nM; inhibition (CD14-positive cell): inactive; Activity [22]: Active; Activity [23]: Active |
| C[C@@H]1CCN(C(=O)CC#N)C[C@@H]1N(C)c1ncnc2[nH]ccc12 [TOFACITINIB] |  |  |  |  |  |  |  |  |  | Activity [14]: Dose-Dependent Effect; Activity (CD4+ T cell): Dose-Dependent Effect; inhibition (Th1 cell): Dose-Dependent Effect; inhibition (Th2 cell [15]): Dose-Dependent Effect; inhibition (Th17): Dose-Dependent Effect; inhibition (Th2 cell [16]): Dose-Dependent Effect; inhibition (Th2 cell [17]): Dose-Dependent Effect; Activity [18]: Non-Toxic; Activity [19]: Non-Toxic; Activity [20]: Non-Toxic; IC50 [21]: 53 nM; IC50 [24]: 65 nM; IC50 [25]: 57 nM |
| C[C@H](C(=O)Nc1cccc2c(-c3nc(Nc4cccc(S(C)(=O)=O)c4F)ncc3F)c[nH]c12)N1CCN(C)CC1 | 2.7 | 14 (≈ 7.97 µg/mL) | 0.06 | 20 | 42 | 56 |  |  |  | IC50 [26]: 17500 nM; IC50 [27]: > 30000 nM |
